Measurements published in patent US7754677B2, “Composition and method for reducing diarrhea in a mammal” (Hill's Pet Nutrition, Inc., priority 2003, dated 2010).

How the values were obtained:
[1] = Postprandial plasma glutamine dose response study in dogs; format: in vivo
Protocol: In one experiment, a source of glutamine was tested to see if it was bioavailable and able to deliver adequate glutamine to the intestinal cells. The source of glutamine was a wheat hydrolysate with an enrichment of 30% glutamine. A dose response study was carried out in 6 dogs to see if increasing levels of the glutamine source (0, 0.5, 1.0, 2% glutamine content) was detected in the plasma after feeding the diet.

T cell lymphocyte = experiment: T-cell proliferation assay in response to ConA mitogen, blood of dogs fed glutamine supplemented diet; format: in vivo, Beagle dogs; conditions: for T cell proliferation (log10 cpm): ConA mitogen, data collapsed across ConA doses
Protocol: In a further experiment, the efficacy of glutamine as a immune-modulator was examined. 20 Beagle dogs were randomly allocated into 4 groups receiving either basic diet or basic diet supplemented with 1%, 2%, or 4% glutamine. Blood samples were drawn in heparinized tubes from animals 2 hrs after their last feeding on day 1 and 16. Samples were prepared for immune measurement. (T cell proliferation assay).
T-cell proliferation assay. Peripheral blood leukocytes (PBL) in each blood sample were counted using Nova Celltrak II (Beckman Coulter Corp., Fla.). Blood was diluted (1:20) with supplemented media. Diluted blood was plated, in triplicate, in 96 well cell culture plates with the following mitogens diluted in supplemented media: Concanavalin A (0.5 μg/ml, 2.5 μg/ml. Plates were incubated in a humidified incubator containing 7% CO2 at 37° C. for 72 hrs. Cellular DNA was […]. Cellular DNA was harvested on glass fiber paper using a cell harvester (Skatron Instruments Inc., Va.) and suspended with 1.5 ml scintillation cocktail. [^3H]thymidine uptake was quantified as counts per minutes (CPM) using TriCarb 2100TR Liquid Scintillation Analyzer (Packard BioScience Company, Ill.). Counts were normalized to CPM/10,000 cells to account for variation in PBL concentrations.
Concanvalin A (Con A) is a polyclonal T-cell mitogen. […] Thus, the data were collapsed across the different doses of Con A to show the proliferative response of lymphocytes dependent on percentage of glutamine supplemented in the diet.

In the case of `NC(=O)CC[C@H](N)C(=O)O` [glutamine], the “% Change in plasma glutamine from control” value (“% Change in plasma glutamine” for short) ([1]; 0.5% supplemented glutamine in food) is reported as 3%, the “% Change in plasma glutamine” value ([1]; 1.0% supplemented glutamine in food) is reported as 10% and the “% Change in plasma glutamine” value ([1]; 2.0% supplemented glutamine in food) is reported as 15%. The “Lymphocyte proliferation, result in words” value (T cell lymphocyte; 1% glutamine in diet, versus control group P<0.05) was “maximum lymphocyte proliferation”, the “T cell proliferation (log10 cpm)” value (T cell lymphocyte; 1% supplemental glutamine in diet) was 5 log10 cpm and the “T-lymphocytes proliferation, result in words” value (T cell lymphocyte; 1-2% glutamine in diet) was “enhances overall T-lymphocytes proliferation”. The “T cell proliferation (log10 cpm)” value (T cell lymphocyte; 2% supplemental glutamine in diet) was 4.8 log10 cpm, the “T-lymphocytes proliferation, result in words” value (T cell lymphocyte; 4% glutamine in diet) was “not additionally beneficial” and the “T cell proliferation (log10 cpm)” value (T cell lymphocyte; 4% supplemental glutamine in diet) was 4.5 log10 cpm.
